In brackets after ≈: the same amount, converted by molar mass.
Columns and labels:
C. albicans SC5314 [1] = experiment: Antifungal susceptibility testing, microbroth dilution MIC; type: cell-based; details: Candida albicans, SC5314; C. albicans wild-type strain; RPMI1640, 35°C, 24 h; read-out: MIC (μg/mL) against fungi SC5314
Summary of the method: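 CLSI microbroth dilution in RPMI1640, final drug range 0.0156–64 μg/mL. Inocula 1 × 10^3 CFU/mL for C. albicans and C. neoformans, 1 × 10^4 CFU/mL for A. fumigatus; 35°C for 24 h (C. albicans) or 48 h (C. neoformans, A. fumigatus). MIC read as visible growth inhibition versus control, in duplicate.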

C. albicans SC5314 [2] = experiment: RNA-seq transcriptional analysis; type: cell-based, Candida albicans
Procedure: C. albicans SC5314 cells were inoculated into RPMI 1640 medium at a concentration of 1 × 10^7 cells/mL and incubated at 30°C for 6 h. The cells were then harvested, and RNA extraction was performed with the Yeast RNA Kit (OMEGA, Guangzhou, China). RNA purity was evaluated using a Nanodrop-2000, and RNA integrity was assessed using the RNA Nano 6000 detection kit. RNA-Seq libraries are prepared using NEB Next Ultra RNA Library Prep Kit (NEB, MA, USA) for Illumina. The cDNA library quality was quantified first by using Qubit 2.0 Fluorometer, detected on Agilent 2100 bioanalyzer. Clustering was performed in the cBot cluster generation system. After cluster generation, the library preparations were sequenced on the Illumina Novaseq platform. Library construction and sequencing were performed by Novogene (Beijing, China). Each sample was analyzed in triplicate.
The raw data in fastq format were first processed by an internal perl script. In this step, clean data were obtained by applying various processing methods. […] The clean reads were individually mapped to the C. albicans SC5314 reference genome using HISAT2 (v2.0.5). The fragments per kilobase of transcript per million mapped reads (FPKM) value was calculated for each gene, and the read counts were mapped to the genes. […] Genes with an adjusted P value < 0.05 and |log2FoldChange| > 1 as detected by DESeq2 were considered DEGs. […]

C. albicans SC5314 cells = experiment: ROS production assay (DCFH-DA); type: cell-based, Candida albicans; details: 6 h, compared with the control
Procedure: ROS production assay. Logarithmic-phase C. albicans SC5314 cells (1 × 10^6 cells/mL in RPMI1640 medium) were incubated in the presence or absence of 19ak for 6 h, followed by incubation with 2′,7′-dichlorofluorescein diacetate (DCFH-DA) in the dark for 30 min. The fluorescence intensity was then measured by flow cytometry, and the data were analyzed with Win MDI 2.9 software. […]

CAT = experiment: Catalase (CAT) activity in treated cells; type: cell-based; details: 0.5 μg/mL or above, 6 h
Procedure: Determination of SOD activity. SOD activity was measured using the Superoxide Dismutase Activity Assay Kit (Njjcbio, Nanjing, China) following the manufacturer's instructions. An overnight culture of C. albicans SC5314 was adjusted to 1 × 10^7 cells/mL with RPMI1640 medium and treated with 19ak at a final concentration of 0, 0.125, 0.25, 0.5, or 1 μg/mL for 6 h. After collection by centrifugation, the cells were broken by glass beads in extraction buffer and centrifuged at 4°C. The absorbance of the supernatant of each sample was measured with a microplate reader at450 nm.
Determination of catalase (CAT) activity. CAT activity was measured by using a Catalase Assay Kit (Solarbio, Beijing, China) following the manufacturer's instructions. An overnight culture of C. albicans SC5314 was adjusted to 1 × 10^6 cells/mL with RPMI1640 medium and treated as described above for SOD activity.
The decomposition of H2O2 is directly accompanied by a decrease in absorbance at 240 nm, and the difference in absorbance per unit time (ΔA240) is a measure of […]
Quantitative real-time polymerase chain reaction (qPCR) analysis. C. albicans SC5314 cells (1 × 10^6 cells/mL) were incubated with or without 19ak (0.5,2 μg/mL) in RPMI1640 medium for 6 h. Total RNA was extracted using the hot phenol method, and the RNA quality was analyzed using a spectrophotometer (Eppendorf, Hamburg, Germany). […]

## C/C(=N\NC(=S)N(C)C)c1ccccn1 [Compound 19ak]
C. albicans SC5314 [1]
  MIC: 0.125 µg/mL (≈ 0.562 µM)
C. albicans SC5314 [2]; high dose (2 μg/mL)
  Expression of genes involved in iron and zinc acquisition: downregulated
C. albicans SC5314 [2]; low dose (0.5 μg/mL)
  Expression of genes involved in iron and zinc acquisition: strongly induced
C. albicans SC5314 cells
  ROS formation (DCFH-DA): decreased ROS
CAT
  CAT activity: increased
